Test system: infant pigs
Assay: Hemoglobin measurement of pigs treated with granular materials or iron dextran injections
Format: in vivo, pig
Method: In Example 6, four litters of pigs were provided granular product (sample numbers 272 and 280). These litters were offered these granular products ad litum from birth to 21 days of birth. Two litters were not offered granular material, but were instead injected with iron dextran on day 3 after birth with 1 cc of 200 mg of iron dextran. Two other litters, also not offered granular material, were injected twice, once on day 3, and once on day 10 after birth. Each injection was a 1 cc injection of 200 mg of iron dextran.
The National Research Council in the Nutrient Requirement of Swine publication recommends that levels of iron dextran providing more than 200 mg per pig in one injection be avoided. Many producers provide a second injection to minimize the deficiency which doubles the cost of preventing anemia in young pigs, and increases the probability of spreading pathogens with needles.
Hemoglobin analysis is an excellent way to quantitate the adequacy of iron for the pig but the treatment differences are obvious by just viewing the litters.
A striking difference between healthy hemoglobin adequate pigs and anemic pigs is the color of the skin. This is most obvious in white pigs, and most pigs in US have some white color in their breed lineage. Pigs with hemoglobin values above 10 gm per 100 ml. have extremely bright, pink skin, while anemic pigs have very pale almost white color of the skin.

[1] = 1 injection, day 3, 1 cc of 200 mg, first litter (12 pigs)
[2] = 1 injection, second litter (10 pigs)
[3] = 2 injections, day 3 and day 10, each 1 cc of 200 mg, first litter (7 pigs)
[4] = 2 injections, second litter (11 pigs)

iron dextran
Pigs <10 gm % (hemoglobin) [1]: 10
Pigs >10 gm % (hemoglobin) [1]: 2
Pigs <10 gm % (hemoglobin) [2]: 4
Pigs >10 gm % (hemoglobin) [2]: 6
% with adequate Hemoglobin (1 injection, total of 22 pigs): 36%
Pigs <10 gm % (hemoglobin) (1 injection, total of 22 pigs): 14
Pigs >10 gm % (hemoglobin) (1 injection, total of 22 pigs): 8
Pigs <10 gm % (hemoglobin) [3]: 2
Pigs >10 gm % (hemoglobin) [3]: 5
Pigs <10 gm % (hemoglobin) [4]: 2
Pigs >10 gm % (hemoglobin) [4]: 9
% with adequate Hemoglobin (2 injections, total of 18 pigs): 77%
Pigs <10 gm % (hemoglobin) (2 injections, total of 18 pigs): 4
Pigs >10 gm % (hemoglobin) (2 injections, total of 18 pigs): 14
